Source: patent US20110136788A1, “THERAPEUTIC AGENT FOR IRRITABLE BOWEL SYNDROME” (priority 2008, published 2011)
Read-outs that look alike come from different tables or passages of the source.

Assays:
mouse TGR5 = target: T1, mouse TGR5 (Mus musculus, UniProt Q80SS6); test: cAMP production in CHO cell line expressing mouse TGR5 (CHO-mTGR5); format: cell-based
T1 construct: expressed in transfected cells; host or cells: CHO cells, expression vector pAKKO-111H
T1 sequence (Q80SS6 1-329): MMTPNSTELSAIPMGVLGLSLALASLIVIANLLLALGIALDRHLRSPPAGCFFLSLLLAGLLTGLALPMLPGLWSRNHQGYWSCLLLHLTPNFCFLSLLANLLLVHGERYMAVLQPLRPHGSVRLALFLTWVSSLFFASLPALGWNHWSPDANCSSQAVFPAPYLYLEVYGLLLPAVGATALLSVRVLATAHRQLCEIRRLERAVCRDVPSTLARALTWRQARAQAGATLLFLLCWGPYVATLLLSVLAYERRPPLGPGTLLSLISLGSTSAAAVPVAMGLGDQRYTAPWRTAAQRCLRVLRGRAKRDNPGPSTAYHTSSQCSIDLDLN
Method: (§1) CHO cell line expressing mouse TGR5 (CHO-mTGR5), which was prepared by a method known per se and using the mouse TGR5 expression vector, was suspended in an assay medium (Hanks' Balanced Salt Solution (Invitrogen) added with 0.2 mM isobutylmethylxanthine and 0.1% bovine albumin) at 1×10^7 cells/ml and stood at room temperature for 30 min. Then, a compound diluted with the assay medium to each concentration was added, and the mixture was stood still at room temperature for 30 min, and the cAMP amount was measured according to the protocol of ALPHA SCREEN cAMP ASSAY KIT (Perkin Elmer). […] The EC50 value was calculated by using GraphPad PRISM (GraphPad software) from the amount of cAMP produced by each compound.

human TGR5 = target: T2, human TGR5 (Homo sapiens, UniProt Q8TDU6); test: cAMP production in CHO cell line expressing human TGR5 (CHO-hTGR5); format: cell-based
T2 construct: expressed in transfected cells; host or cells: CHO cells
T2 sequence (Q8TDU6 1-330): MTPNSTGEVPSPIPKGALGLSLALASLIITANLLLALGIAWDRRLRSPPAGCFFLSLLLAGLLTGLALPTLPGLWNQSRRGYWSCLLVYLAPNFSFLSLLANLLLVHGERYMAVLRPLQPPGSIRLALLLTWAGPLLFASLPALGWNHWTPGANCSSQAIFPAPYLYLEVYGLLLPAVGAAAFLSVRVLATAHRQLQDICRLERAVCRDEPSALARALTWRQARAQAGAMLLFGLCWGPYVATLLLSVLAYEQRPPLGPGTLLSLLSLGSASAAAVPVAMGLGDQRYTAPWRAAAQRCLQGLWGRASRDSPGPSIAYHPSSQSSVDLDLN
Method: [The procedure below names another species; the source lists this species under the same test.] as §1

rat TGR5 = target: T3, rat TGR5 (Rattus norvegicus, UniProt Q80T02); test: cAMP production in CHO cell line expressing rat TGR5 (CHO-rTGR5); format: cell-based
T3 construct: expressed in transfected cells; host or cells: CHO cells
T3 sequence (Q80T02 1-329): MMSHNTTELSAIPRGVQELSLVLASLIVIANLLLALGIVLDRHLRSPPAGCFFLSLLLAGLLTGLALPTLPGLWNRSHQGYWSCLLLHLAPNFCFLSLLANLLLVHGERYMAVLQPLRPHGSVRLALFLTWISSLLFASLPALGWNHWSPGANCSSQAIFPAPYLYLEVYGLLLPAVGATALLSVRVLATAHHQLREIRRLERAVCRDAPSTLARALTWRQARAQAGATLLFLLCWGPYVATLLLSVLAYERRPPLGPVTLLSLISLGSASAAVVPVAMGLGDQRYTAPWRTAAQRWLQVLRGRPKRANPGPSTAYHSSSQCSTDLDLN
Method: [The procedure below names another species; the source lists this species under the same test.] as §1

[1] = test system: restraint stress-induced bowel movement, male C57BL/6 mice; test: mouse restraint stress-induced bowel movement; format: in vivo; details: intraperitoneal; for suppression of restraint stress-induced bowel movement: 10 min before stress loading, excreted feces in 2 hr, FIG. 2
Method: Male C57BL/6 mice were used under non-fasting conditions. On the day of the test, the body weight was measured, and the mice were individually bred for 2 hr. Thereafter, the mice were placed in a mouse restraint stress cage, and the number of excreted feces in 2 hr was counted. The normal group was individually bred for 2 hr, and subsequently was bred under the same conditions, the number of excreted feces in 2 hr was counted. Each drug (same as in Example 1) was suspended in 0.5% methylcellulose, and intraperitoneally administered at a dose of 10 ml/kg 10 min before stress loading.

[2] = test system: stress-induced bowel movement; details: various animals, references 6-9; cited from earlier work
[3] = test system: rat ileum peristalsis motility; test: rat exo-vivo ileum peristalsis; details: isolated ileum of male SD rats, intraluminal pressure; FIG. 3
Method: Male SD rats were used under non-fasting conditions. On the day of the test, 4-5 cm of the ileum was isolated, and the oral side end and aboral side end were subjected to cannulation. 95% oxygen/5% carbon dioxide was passed therethrough and placed horizontally in a bath filled with a Krebs solution warmed to 37° C. A tube outflux on the aboral side was set at about 4 cm higher than the bath, 95% oxygen/5% carbon dioxide was passed from the tube on the oral side and perfused with a Krebs solution warmed to 37° C. at a flow rate of 10 cc/hr to induce peristalsis motility. Changes of the intraluminal pressure of the intestine due to the peristalsis motility of the ileum were recorded by a transducer from the tube on the oral side. A compound at various concentrations was added to the Krebs solution surrounding the ileum. When a compound at various concentrations was added, the Krebs solution was exchanged immediately before the addition.

[4] = CHO-hTGR5, cAMP production, read-out: EC50 value
[5] = CHO-rTGR5, cAMP production, read-out: EC50 value
[6] = Table 8, rat TGR5, read-out: EC50 (M) Rat

Row | EC50 (mouse TGR5) [nM] | EC50 (human TGR5; [4]) [M] | EC50 (rat TGR5; [5]) [M] | EC50 (rat TGR5; [6]) [M] | EC50 (human TGR5; Table 8, human TGR5, read-out: EC50 (M) Human) [M] | Structure (SMILES) | suppressive action on the restraint stress-induced bowel movement ([1]; dose 30 mg/kg) | suppression of restraint stress-induced bowel movement [1] | suppression of stress-induced bowel movement [2] | suppressive action on the restraint stress-induced bowel movement ([1]; dose 10 mg/kg) | suppression of peristalsis motility of the ileum [3] | suppressive action on the restraint stress-induced bowel movement ([1]; dose 3 mg/kg)
1 | 25 | 6.2e-10 | 2.4e-09 | – | – | CC(c1cc(C(F)(F)F)cc(C(F)(F)F)c1)N1Cc2c(-c3ccccc3F)ccnc2OCC1=O (centres unmarked) [Compound B, 4-{1-[3,5-bis(trifluoromethyl)phenyl]ethyl}-6-(2-fluorophenyl)-4,5-dihydropyrido[3,2-f][1,4]oxazepin-3(2H)-one] | statistically significant suppressive action | suppressed a restraint stress-induced bowel movement in a dose-dependent manner | – | – | – | –
2 | – | – | – | – | – | Cc1[nH]cnc1CN1CCc2c(c3ccccc3n2C)C1=O [Alosetron] | – | – | suppress stress-induced bowel movement | – | – | –
3 | 25 | 2.1e-09 | 9.9e-09 | 9.9e-09 | – | CN1C(=O)C(C)(C)N(C(=O)COc2cccc3cnccc23)c2ccc(F)cc21 [Compound C, 7-fluoro-4-[(isoquinolin-5-yloxy)acetyl]-1,3,3-trimethyl-3,4-dihydroquinoxalin-2(1H)-one] | statistically significant suppressive action | suppressed a restraint stress-induced bowel movement in a dose-dependent manner | – | statistically significant suppressive action | – | –
4 | – | 2.4e-07 | 3.2e-07 | – | 2.4e-07 | O=C1COc2nccc(-c3ccccc3O)c2CN1Cc1cc(C(F)(F)F)cc(C(F)(F)F)c1 [Compound E, 4-[3,5-bis(trifluoromethyl)benzyl]-6-(2-hydroxyphenyl)-4,5-dihydropyrido[3,2-f][1,4]oxazepin-3(2H)-one] | – | – | – | – | suppressed the peristalsis motility of the ileum in a dose-dependent manner | –
5 | – | – | – | – | – | O=C1COc2nccc(-c3ccccc3F)c2CN1Cc1cc(C(F)(F)F)cc(C(F)(F)F)c1 [Compound A, 4-[3,5-bis(trifluoromethyl)benzyl]-6-(2-fluorophenyl)-4,5-dihydropyrido[3,2-f][1,4]oxazepin-3(2H)-one] | statistically significant suppressive action | suppressed a restraint stress-induced bowel movement in a dose-dependent manner | – | – | suppressed the peristalsis motility of the ileum in a dose-dependent manner | –
6 | 730 | 1.6e-09 | 1.2e-07 | 1.2e-07 | – | CC(c1cc(C(F)(F)F)cc(C(F)(F)F)c1)N1CCOc2nccc(-c3ccccc3)c2C1.Cl (centres unmarked) [Compound D, 4-{1-[3,5-bis(trifluoromethyl)phenyl]ethyl}-6-phenyl-2,3,4,5-tetrahydropyrido[3,2-f][1,4]oxazepine hydrochloride] | statistically significant suppressive action | suppressed a restraint stress-induced bowel movement in a dose-dependent manner | – | statistically significant suppressive action | suppressed the peristalsis motility of the ileum in a dose-dependent manner | statistically significant suppressive action
